Values quoted from earlier work in US10478399B2, “Modified release tablet composition comprising mirabegron” (SYNTHON B.V., priority 2017, dated 2019).

Tests used:
[1] = neutral to acidic pH
[2] = presence of food in the GI tract

permeability (BCS): low permeability
solubility (BCS): high solubility
effect of food on bioavailability [2]: affected by the presence of food
SMILES: Nc1nc(CC(=O)Nc2ccc(CCNC[C@H](O)c3ccccc3)cc2)cs1 [Mirabegron, (R)-2-(2-aminothiazol-4-yl)-4′-[2-[(2-hydroxy-2-phenylethyl)amino]ethyl]acetic acid anilide]
solubility in water [1]: soluble in water between neutral to acidic pH
